The results in this text go back to patent US20160271118A1, “PHARMACEUTICAL COMPOSITIONS COMPRISING ANTIBACTERIAL AGENTS” (priority 2013, published 2016).

The structures appear in SMILES notation. Like-named read-outs stand apart in the source and are kept apart here.

Holding throughout (type): cell-based, Acinetobacter baumannii
The subject of one assay is A. baumannii NCTC 13301. As to the kind of experiment: Broth microdilution MIC (CLSI), A. baumannii NCTC 13301. The note with it: for MIC: Acinetobacter baumannii, NCTC13301; for MIC of Sulbactam in combination of compound: compound at 4 mcg/ml; for MIC of Cefepime in combination of compound: compound at 8 mcg/ml. The protocol:
(§1) The broth microdilution Minimum Inhibitory Concentration (MIC) studies were conducted as per the CLSI recommendations (Clinical and Laboratory Standards Institute (CLSI), Performance Standards for Antimicrobial Susceptibility Testing, 20th Informational Supplement, M 100-S20, Volume 30, No. 1, 2010). The media utilized was Brain Heart Infusion broth (BD, USA). In brief, 50 mcl of serial double dilutions of the antibacterial agents in Brain Heart Infusion media were dispensed in 96 well microtiter plate. 50 mcl of culture suspension was added to each pre dispensed drug dilution such that the final bacterial inoculum density was 2-8×10^5 CFU/ml. The plates were incubated for 20-24 hours at 35±2° C. and observed visually for growth or no growth based on the turbidity. Three specific compounds generally represented by a general Formula (I) were used and are as follows: • 1. (2S,5R)-7-oxo-N-[(3S)-pyrrolidin-3-yloxy]-6-(sulfooxy)-1,6-diazabicyclo[3.2.1]octane-2-carboxamide (Compound A),
(§2) The results of antibacterial activity of various compounds when used alone and in combinations according to the inventions are shown in Tables 1 and 2 respectively. The strains of A. baumannii used for the study were those which produced carbapenem hydrolyzing class D beta-lactamase enzymes (OXA 23, OXA 24 or OXA 27). […] In general, the MIC values of Sulbactam and Cefepime reduced when these were combined with Compounds A, B and C.
In general terms: In broth dilution the organism is exposed to a series of concentrations in liquid medium.

Another assay deals with A. baumannii NCTC 13302. As to the kind of experiment: Broth microdilution MIC (CLSI), A. baumannii NCTC 13302. The note with it: for MIC: Acinetobacter baumannii, NCTC13302; for MIC of Sulbactam in combination of compound: compound at 4 mcg/ml; for MIC of Cefepime in combination of compound: compound at 8 mcg/ml. The protocol: as §1, §2
The test system of another assay is A. baumannii NCTC 13304. Put plainly: Broth microdilution MIC (CLSI), A. baumannii NCTC 13304. The note with it: for MIC: Acinetobacter baumannii, NCTC13304; for MIC of Sulbactam in combination of compound: compound at 4 mcg/ml; for MIC of Cefepime in combination of compound: compound at 8 mcg/ml. The protocol:
as §1, §2

Another assay deals with A. baumannii. Put plainly: Broth microdilution MIC (CLSI), A. baumannii strains overall. The settings on record: used alone; for MIC: Acinetobacter baumannii, A. baumannii strains producing OXA 23, OXA 24 or OXA 27. The protocol: as §1, §2
[1] abbreviates: compound alone, A. baumannii NCTC 13301 (OXA 51, OXA 23), read-out: MIC.
Where [2] appears, read: A. baumannii NCTC 13301 (OXA 51, OXA 23).
The mark [3] stands for this setting: compound alone, A. baumannii NCTC 13302 (OXA 51, OXA 24), read-out: MIC.
Where [4] appears, read: A. baumannii NCTC 13302 (OXA 51, OXA 24).
[5] abbreviates: compound alone, A. baumannii NCTC 13304 (OXA 51, OXA 27), read-out: MIC.
The mark [6] stands for this setting: A. baumannii NCTC 13304 (OXA 51, OXA 27).

A word on the MIC: it is the smallest concentration in the dilution series that meets the test's criterion for growth inhibition.

Turning to `O=C(NO[C@H]1CCNC1)[C@@H]1CC[C@@H]2CN1C(=O)N2OS(=O)(=O)O` [Compound A, (2S,5R)-7-oxo-N-[(3S)-pyrrolidin-3-yloxy]-6-(sulfooxy)-1,6-diazabicyclo[3.2.1]octane-2-carboxamide], the MIC with A. baumannii NCTC 13301 (setting [1]), in the assay with A. baumannii NCTC 13302 (setting [3]), in the assay with A. baumannii NCTC 13304 (setting [5]) and in the assay on A. baumannii was > 128 µg/mL in each case. The “MIC of Sulbactam in combination of compound” value (“MIC of Sulbactam” below) was 4 µg/mL in the assay on A. baumannii NCTC 13301 (setting [2]), 8 µg/mL with A. baumannii NCTC 13302 (setting [4]) and 8 µg/mL in the assay on A. baumannii NCTC 13304 (setting [6]). The “MIC of Cefepime in combination of compound” value (from here on “MIC of Cefepime”) with A. baumannii NCTC 13301 (setting [2]), with A. baumannii NCTC 13302 (setting [4]) and with A. baumannii NCTC 13304 (setting [6]) was 16 µg/mL throughout.
On to `CO/N=C(\C(=O)N[C@@H]1C(=O)N2C(C(=O)[O-])=C(C[N+]3(C)CCCC3)CS[C@H]12)c1csc(N)n1` [Cefepime, reference compound], for which the MIC is > 32 µg/mL in the assay with A. baumannii NCTC 13301 (setting [1]), 32 µg/mL with A. baumannii NCTC 13302 (setting [3]) and 32 µg/mL with A. baumannii NCTC 13304 (setting [5]). Besides, in the assay on A. baumannii, the “antibacterial activity against A. baumannii” value (from here on “antibacterial activity”) is recorded as “poor antibacterial activity”.
With `O=C(NOC[C@@H]1CCCCN1)[C@@H]1CC[C@@H]2CN1C(=O)N2OS(=O)(=O)O` [Compound C, (2S,5R)-7-oxo-N-[(2S)-piperidine-2-ylmethyloxy]-6-(sulfooxy)-1,6-diazabicyclo[3.2.1]octane-2-carboxamide], the minimal inhibitory concentration (MIC) in the assay with A. baumannii NCTC 13301 (setting [1]), in the assay with A. baumannii NCTC 13302 (setting [3]), in the assay on A. baumannii NCTC 13304 (setting [5]) and in the assay with A. baumannii was > 128 µg/mL throughout. For the same compound, the “MIC of Sulbactam” value amounted to 4 µg/mL with A. baumannii NCTC 13301 (setting [2]), 8 µg/mL with A. baumannii NCTC 13302 (setting [4]) and 8 µg/mL with A. baumannii NCTC 13304 (setting [6]). For the same compound, the “MIC of Cefepime” value in the assay on A. baumannii NCTC 13301 (setting [2]) amounted to 32 µg/mL; with A. baumannii NCTC 13302 (setting [4]), 16 µg/mL; with A. baumannii NCTC 13304 (setting [6]) it was 8 µg/mL.
Take `CC1(C)[C@H](C(=O)O)N2C(=O)C[C@H]2S1(=O)=O` [Sulbactam, reference compound]: the minimal inhibitory concentration (MIC) with A. baumannii NCTC 13301 stood at 8 µg/mL; in the assay with A. baumannii NCTC 13302, 16 µg/mL; with A. baumannii NCTC 13304 it was 32 µg/mL. In addition, in the assay with A. baumannii, the “antibacterial activity” value was “poor antibacterial activity”.
Regarding `O=C(NOC[C@@H]1CCCN1)[C@@H]1CC[C@@H]2CN1C(=O)N2OS(=O)(=O)O` [Compound B, (2S,5R)-7-oxo-N-[(2S)-pyrrolidin-2-ylmethyloxy]-6-(sulfooxy)-1,6-diazabicyclo[3.2.1]octane-2-carboxamide], the MIC in the assay on A. baumannii NCTC 13301 (setting [1]), in the assay with A. baumannii NCTC 13302 (setting [3]), in the assay on A. baumannii NCTC 13304 (setting [5]) and in the assay with A. baumannii was > 128 µg/mL each time. The “MIC of Sulbactam” value with A. baumannii NCTC 13301 (setting [2]), with A. baumannii NCTC 13302 (setting [4]) and with A. baumannii NCTC 13304 (setting [6]) was 4 µg/mL throughout. Further, the figures for the “MIC of Cefepime” value in the assay on A. baumannii NCTC 13301 (setting [2]), in the assay with A. baumannii NCTC 13302 (setting [4]) and in the assay with A. baumannii NCTC 13304 (setting [6]) were 16 µg/mL, 16 µg/mL and 8 µg/mL, respectively.
Regarding `C[C@@H](O)[C@H]1C(=O)N2C(C(=O)O)=C(S[C@@H]3CN[C@H](C(=O)N(C)C)C3)[C@H](C)[C@H]12` [Meropenem, reference compound], the minimum inhibitory concentration (MIC) in the assay with A. baumannii NCTC 13301 (setting [1]) was 32 µg/mL; in the assay on A. baumannii NCTC 13302 (setting [3]) it was > 32 µg/mL; with A. baumannii NCTC 13304 (setting [5]), > 32 µg/mL. The “antibacterial activity” value in the assay on A. baumannii is given as “poor antibacterial activity”.
